Source: ChEMBL document CHEMBL4806969, “Modulators of mas-related g-protein receptor x4 and related products and methods” (2020)

molecular target: Mas-related G-protein coupled receptor member X4 (Homo sapiens, UniProt Q96LA9); assay: Antagonist activity at human MRGPRX4 expressed in HEK cells incubated in dark for 1 hr at 37 degree C and then incubated for 30 mins at room temperature in presence of […] bilirubin by HTRF assay; assay type: functional, cell-based; details: not given
Sequence (Q96LA9 whole entry): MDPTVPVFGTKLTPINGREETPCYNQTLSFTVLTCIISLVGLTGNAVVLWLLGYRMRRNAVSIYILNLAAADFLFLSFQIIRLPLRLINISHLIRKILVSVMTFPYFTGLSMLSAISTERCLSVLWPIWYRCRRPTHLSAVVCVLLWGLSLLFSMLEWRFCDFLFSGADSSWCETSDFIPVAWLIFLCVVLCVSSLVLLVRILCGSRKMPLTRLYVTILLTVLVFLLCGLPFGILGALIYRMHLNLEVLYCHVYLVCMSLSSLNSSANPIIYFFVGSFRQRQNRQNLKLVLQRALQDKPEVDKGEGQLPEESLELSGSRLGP

Row | SMILES | IC50 [nM]
1 | CCOC(=O)c1cccc(COc2ccc(C(F)(F)F)cc2Cl)n1 | < 100
2 | Fc1cc(OCc2cccc(-c3nnn[nH]3)c2)ccc1C(F)(F)F | < 100
3 | N#Cc1cc(COc2ccc(OC(F)(F)F)cc2Cl)cc(C(=O)O)c1 | < 100
4 | Fc1cc(COc2ccc(C(F)(F)F)cc2Cl)cc(-c2nnn[nH]2)c1 | < 100
5 | O=C(O)c1cccc(COc2ccc3c(c2)C(=O)CCC3)c1 | > 2500
6 | Cc1cc(CNc2ccc(C(F)(F)F)cc2Cl)nc(C(=O)O)c1 | < 100
7 | Cc1cc(COc2ccc(C(F)(F)F)cc2Cl)nc(C(=O)O)c1 | < 100
8 | O=C(O)c1cccc(COc2cccc(C(F)F)c2)c1 | > 2500
9 | O=C(O)c1cccc(Oc2ccc([N+](=O)[O-])cc2Cl)c1 | > 2500
10 | Cc1cc(C(F)(F)F)ccc1OCc1cc(C#N)cc(C(=O)O)c1 | < 100
11 | Cc1cc(C(F)(F)F)ccc1OCc1cc(F)cc(C(=O)O)c1 | < 100
12 | O=C(O)c1cccc(COc2ccc(C(F)(F)F)c(F)c2)c1 | < 100
13 | O=C(c1ccc(COc2ccc(C(F)(F)F)cc2Cl)cc1)N1CC2(COC2)C1 | < 2500
14 | O=C(O)c1cc(F)cc(COc2ccc(C(F)(F)F)cc2Cl)c1 | < 100
15 | O=C(O)c1cccc(COc2ccc(C(F)(F)F)cc2Cl)n1 | < 100
16 | Cc1cc(C(F)(F)F)ccc1OCc1cccc(-c2nnn[nH]2)c1 | < 100
17 | O=C(O)c1cccc(COc2ccc(C(F)(F)F)c(Cl)c2)n1 | < 100
18 | O=C(O)c1cc(COc2ccc(C(F)(F)F)cc2Cl)cc(C2CC2)c1 | < 100

Row | SMILES | IC50 [nM]
19 | O=C(O)c1cccc(COc2ccccc2Cl)c1F | > 2500
20 | O=C(O)c1cccc(NC(=O)c2cccc(COc3ccc(C(F)(F)F)cc3Cl)c2)c1 | > 2500
21 | COc1cc(COc2ccc(C(F)(F)F)cc2Cl)cc(C(=O)O)c1 | < 100
22 | c1cc(COc2ccc3ccccc3c2)cc(-c2nnn[nH]2)c1 | < 100
23 | O=C(O)c1cccc(CNc2ccc(C(F)(F)F)cc2Cl)n1 | < 100
24 | Fc1ccc(COc2ccc(C(F)(F)F)cc2Cl)cc1-c1nnn[nH]1 | < 100
25 | O=C(O)c1cccc(CNc2ccc(C(F)(F)F)cc2Cl)c1 | < 100
26 | O=C(O)c1cc(C2CC2)cc(COc2ccc(C(F)(F)F)cc2Cl)n1 | < 100
27 | FC(F)(F)c1ccc(OCc2cccc(-c3nnn[nH]3)c2)cc1Cl | < 100
28 | O=C(O)c1cccc(COc2ccc(-c3ccccc3)cc2)c1 | > 2500
29 | CCc1cc(COc2ccc3ccccc3c2)nc(C(=O)O)c1 | < 100
30 | O=C(O)c1cc(F)cc(COc2ccc3ccccc3c2)c1 | < 100
31 | O=C(O)c1nc(COc2ccc(C(F)(F)F)cc2Cl)ccc1F | < 100
32 | N#Cc1cc(COc2ccc(C(F)(F)F)c(Cl)c2)cc(C(=O)O)c1 | < 100
33 | N#Cc1cc(COc2ccc(C(F)(F)F)cc2Cl)cc(C(=O)O)c1 | < 100
34 | Fc1ccc(OCc2cccc(-c3nnn[nH]3)c2)c(Cl)c1 | < 100
35 | O=C(O)c1cccc(COc2ccc(OC(F)(F)F)cc2Cl)c1F | < 100

Other lines, results leading:

Row | IC50 [nM] | SMILES
36 | < 100 | Cc1cc(Cl)ccc1OCc1cccc(C(=O)O)c1F
37 | < 100 | O=C(O)c1cc(F)cc(COc2ccc(Cl)cc2Cl)c1
38 | < 100 | O=C(O)c1cccc(COc2ccc(OC(F)(F)F)cc2Cl)c1
39 | < 100 | Cc1cc(C(F)(F)F)ccc1OCc1cccc(C(=O)O)c1
40 | < 100 | O=C(O)c1cccc(COc2ccc(Cl)c(F)c2)c1
41 | > 2500 | N#CCc1ccccc1OCc1cccc(C(=O)O)c1
42 | < 100 | Cc1cc(COc2ccc(Cl)cc2Cl)cc(C(=O)O)c1
43 | < 100 | O=C(O)c1cc(Cl)cc(COc2ccc(Cl)cc2Cl)c1
44 | > 2500 | O=C(O)c1cccc(COc2c(Cl)cccc2Cl)c1
45 | < 100 | COc1cc(COc2ccc(Cl)cc2Cl)cc(C(=O)O)c1
46 | < 100 | O=C(O)c1cccc(COc2ccc(Cl)cc2Cl)n1
47 | < 100 | O=C(O)c1cccc(COc2ccc(Cl)cc2Cl)c1F
48 | < 100 | N#Cc1cc(COc2ccc(Cl)c(Cl)c2Cl)cc(C(=O)O)c1
49 | > 2500 | NC(=O)c1cccc(COc2cccc(Cl)c2Cl)c1
50 | > 2500 | Cc1cc(OCc2cccc(C(=O)O)c2)ccc1C(F)(F)F
51 | > 2500 | COC(=O)c1cccc(COc2ccc(Cl)cc2Cl)c1
52 | < 100 | O=C(O)c1cccc(COc2ccc(Cl)cc2Cl)c1Cl
53 | < 100 | O=C(O)c1cccc(COc2ccc(C(F)(F)F)cc2Br)c1
54 | < 100 | O=C(O)c1cccc(COc2ccc(C(F)(F)F)cc2C(F)(F)F)c1
55 | < 100 | Cc1ccc(OCc2cccc(C(=O)O)c2)c(Cl)c1Cl
56 | < 100 | Cc1cc(COc2ccc(Cl)c(Cl)c2Cl)nc(C(=O)O)c1
57 | > 2500 | CC(C)(C)c1ccccc1OCc1cccc(C(=O)O)c1
58 | < 100 | O=C(O)c1cccc(COc2ccc(Cl)c(Cl)c2Cl)c1F

test system: not listed separately; assay: Half life in C57BL/6 mouse at 50 mg/kg, po measured upto 24 hrs by LC-MS/MS analysis; assay type: ADME, organism-based; details: in vivo

Row | SMILES | half-life [h]
59 | O=C(O)c1cc(F)cc(COc2ccc(C(F)(F)F)cc2Cl)c1 | 4.8
60 | O=C(O)c1cccc(COc2ccc(C(F)(F)F)cc2Cl)n1 | 3.2

Now from value to compound:

Row | half-life [h] | SMILES
61 | 3 | O=C(O)c1cccc(COc2ccc(Cl)cc2Cl)n1
62 | 5.9 | O=C(O)c1cccc(COc2ccc(Cl)cc2Cl)c1F

test system: not listed separately; assay: AUC in C57BL/6 mouse at 50 mg/kg, po measured upto 24 hrs by LC-MS/MS analysis; assay type: ADME, organism-based; design: route oral, dose 50 mg/kg, time <=24; details: in vivo

Row | SMILES | AUC at 24 h [µM·h]
63 | O=C(O)c1cc(F)cc(COc2ccc(C(F)(F)F)cc2Cl)c1 | 1040
64 | O=C(O)c1cccc(COc2ccc(C(F)(F)F)cc2Cl)n1 | 880

More lines, now with the values ahead:

Row | AUC at 24 h [µM·h] | SMILES
65 | 1210 | O=C(O)c1cccc(COc2ccc(Cl)cc2Cl)n1
66 | 1500 | O=C(O)c1cccc(COc2ccc(Cl)cc2Cl)c1F
